Source: patent US12171776B2, “Methods for treatment and prophylaxis of HIV and AIDS” (Merck Sharp & Dohme LLC, priority 2016, dated 2024)
Like-named read-outs stand apart in the source and are kept apart here.

Key:
[1] = test system: SIV; conditions: PBMCs isolated from uninfected monkeys 24 hr after drug administration; Stoddart et al. 2015; cited from earlier work
[2] = test system: HIV-1
Excerpt: The single dose monotherapy efficacy of EFDA is currently being evaluated in HIV-1 patients naïve to anti-retroviral treatment.

[3] = test system: SIVmac251; assay: Once-weekly efficacy in an SIV infected rhesus monkey model of HIV-infection; assay type: in vivo; conditions: SIV-infected monkeys
Method: Once-Weekly Efficacy in an SIV Infected Rhesus Monkey Model of HIV-Infection.
Oral efficacy studies were conducted at New Iberia Research Center (NIRC), Lafayette, Louisiana Following treatment with BAYTRIL® (5 mg/kg, IM, SID) for 5 days, 20 monkeys were inoculated intravenously with SIVmac251. After 3 days, venous blood was collected every 2-5 days (2× per week) for viral load testing and monitored to stable viremia (wherein 3 consecutive samples were within 3-fold of each other following acute viremia peak). Plasma SIV viral RNA levels were determined using a branched DNA technique at Siemens Diagnostics, Berkeley, California.
Following determination of stable viremia, SIV-infected monkeys were randomized by age, weight, and viral load (n=3 per group). A 2-arm adaptive design was employed in which results from Arm 1 informed the doses for Arm 2. In Arm 1, animals received two once-weekly doses of vehicle, 1.3 mg/kg EFdA, or 13 mg/kg EFdA administered via oral gavage. In Arm 2, animals received 3.9 mg/kg or 18.2 mg/kg EFdA once-weekly or 0.19 mg/kg EFdA once daily for two weeks. Blood (4 ml) was drawn for viral load determinations during the treatment period on days −2, 0 (dosing day), 1, 2, 3, 5, 7 (dosing day), 8, 9, 10, 12, and 14, and then two times per week for 3 weeks during the washout period. In addition, blood (1 ml) was drawn on days 0 (2 hrs post dose), 1 (24 hr post dose), 7 (2 hrs post dose), and 8 (24 hrs post dose) for EFdA pharmacokinetic assessment.
SIV RNA for genotyping was isolated from 140 μl plasma using the QIAamp Viral RNA Mini kit (Cat #52904/52906). The reverse transcriptase region of SIVmac251 was reverse transcribed and amplified using SuperScript III RT/Platinum polymerase, primers S251RTF1 ([…] [2732-2751]) and S251RTR1 ([…] [4206-4225]) and 8 μl template RNA in 20 μl reactions. A nested PCR reaction was carried out using 3.5 μl of the product from the first reaction with TaKaRa LA Taq and primers S251RTF2 ([…] [2750-2769]) and S251RTR2 ([…] [4169-4188]) in 50 μl reactions. After verifying size of ˜1.5 kb by gel electrophoresis, PCR products were purified using ExoSAP-IT (Affymetrix; cat #78201) and adjusted to 15 ng/ml. PCR products (10 μl) were mixed with 5 μl 5 μM sequencing primers S251RTS5 ([…] [2760-2779]), s251RTS6 ([…] [3266-3285]), or S251RTS7 ([…] [3755-3774]). DNA sequencing was carried out at Genewiz (115 Corporate Blvd, South Plainfield, NJ 07080).

[4] = Phase I single rising dose pharmacokinetics of oral EFdA suspension in healthy adults; assay type: in vivo, human
Method: (§1) Pharmacokinetics of EFdA Following Administration of Oral Doses in Healthy Humans.
(§2) The pharmacokinetics of EFdA were evaluated in Phase I single and multiple rising dose studies. In the single dose study, single oral doses of the oral suspension of EFdA from 5 to 400 mg were administered to three alternating panels of 8 healthy adult subjects. Within each panel, subjects were administered single doses of EFdA (n=6) or matching placebo (n=2) in a blinded fashion in up to 3 treatment periods. Panel A received 15 mg and 200 mg. Panel B received 30 mg, 400 mg, and 30 mg with food. Panel C received 100 mg and 5 mg. In the multiple rising dose study, multiple doses of EFdA oral capsules were administered to three panels of 8 healthy adult subjects. Within each panel, subjects were administered three once weekly doses of EFdA (n=6) or matching placebo (n=2) on Days 1, 8, and 15. Panel A received 10 mg. Panel B received 30 mg, and Panel C received 100 mg.

[5] = Phase I multiple rising dose pharmacokinetics, three once weekly oral doses of EFdA capsules in healthy adults; assay type: in vivo, human; conditions: for plasma concentration (below LLQ): 10 mg dose, all subjects; for Cmax / Tmax / half-life / AUC(0-t) / AUC0-168 hr: healthy fasted subjects; for Cmax / half-life / AUC(0-t) / AUC0-168 hr: geometric mean (%GCV); for Cmax accumulation ratio Week 3/Week 1: geometric mean (min, max); for Tmax / half-life / AUC(0-t): human; for Tmax: po, median (min, max); for AUC(0-t): read-out: AUC0-168 hr
Method: as §1, §2

[6] = in vitro; lymphoid derived cell lines and peripheral blood mononuclear cells; Stoddart et al. 2015; cited from earlier work
[7] = single 10 mg dose, HIV-1 patients, plasma HIV-1 RNA, N=6
[8] = single 10 mg dose, adjusted by pooled historical placebo
[9] = EFdA in plasma, 30 mg oral once weekly, Week 3
[10] = EFdA in plasma, 100 mg oral once weekly, Week 3
[11] = EFdA-TP in PBMCs, EFdA 10 mg oral once weekly, Week 1
[12] = EFdA-TP in PBMCs, EFdA 30 mg oral once weekly, Week 1
[13] = EFdA-TP in PBMCs, EFdA 30 mg oral once weekly, Week 3
[14] = EFdA-TP in PBMCs, EFdA 100 mg oral once weekly, Week 1
[15] = EFdA-TP in PBMCs, EFdA 100 mg oral once weekly, Week 3
[16] = PBMCs, following multiple doses of 30 mg and 100 mg

C#C[C@]1(CO)O[C@@H](n2cnc3c(N)nc(F)nc32)C[C@@H]1O [EFdA, 4′-Ethynyl-2-fluoro-2′-deoxyadenosine]
susceptibility of PBMCs to SIV infection [1]: refractory to SIV infection | Change from Baseline in Viral Load, Max [2, 7]: −1.31 log10 copies/mL | Change from Baseline in Viral Load, Median [2, 7]: −1.63 log10 copies/mL | Change from Baseline in Viral Load, Min [2, 7]: −1.97 log10 copies/mL | Change from Baseline in Viral Load, LS mean (95% CI) ([2]; single 10 mg dose, HIV-1 patients, plasma HIV-1 RNA, N=6, LDA model): −1.67 (−1.87, −1.47) log10 copies/mL | PP = Posterior Probability of true mean difference in plasma HIV-1 RNA reduction from baseline between EFDA and placebo at least 0.5 log10 copies/mL [2, 8]: >99.9% | Placebo Corrected Change from Baseline in Viral Load, Posterior mean [2, 8]: −1.64 log10 copies/mL | mean (95% CI) placebo adjusted VL reduction ([2]; single 10 mg dose, at 168 hours post-dose, HIV-1 patients): 1.67 log 10 | recrudescence of viral load ([2]; single 10 mg dose, through Day 10): no evidence of recrudescence | mean VL reduction ([2]; single 10 mg dose, through Day 10, HIV-1 patients): 1.78 log 10 | tolerability ([2]; single 10-mg dose, HIV-1 patients, limited number of mild/moderate adverse experiences): generally well tolerated | VL suppression maintained ([3]; 3.9 mg/kg QW oral, from Day 7 to Day 14): 7 days | VL drop ([3]; 3.9 to 18.2 mg/kg QW oral): close to maximal | VL during the wash-out period ([3]; after cessation of dosing): dose-dependent VL rebound | control of viremia ([3]; once-weekly oral versus once-daily treatment): can control viremia with once-weekly oral administration as well as once-daily treatment | effect of food on intracellular pharmacokinetics ([4]; 30 mg with food, high-fat meal, single dose): largely unaffected by a high-fat meal | plasma exposure versus dose ([4]; EFdA in plasma, between 5 and 400 mg single oral dose): approximately dose-proportional | median Tmax ([4]; EFdA in plasma, single oral doses 5 to 400 mg, healthy adults): 0.5 h | reduction of plasma Cmax in rapid initial phase ([4]; EFdA in plasma, within the first 6-12 hours, single oral dose): approximately 10 fold | half-life ([4]; human, EFdA in plasma, single oral doses 5 to 400 mg, healthy adults, read-out: apparent terminal half-life, slow terminal phase): 50 to 60 h | plasma concentration (below LLQ) ([5]; at 48 hr post-dose and later on week 1): < 3.41 nM | plasma concentration (below LLQ) ([5]; at 96 hr post-dose or later in week 3): < 3.41 nM | Cmax ([5]; EFdA in plasma, 10 mg oral once weekly, Week 1, read-out: Cmax): 193 nM | Cmax ([5]; EFdA in plasma, 10 mg oral once weekly, Week 3, read-out: Cmax): 241 nM | Cmax accumulation ratio Week 3/Week 1 ([5]; EFdA in plasma, 10 mg oral once weekly): 1.25 (0.70, 1.66) | Cmax ([5]; EFdA in plasma, 30 mg oral once weekly, Week 1, read-out: Cmax): 647 nM | Cmax ([5]; EFdA in plasma, 30 mg oral once weekly, Week 3, read-out: Cmax): 637 nM | Cmax accumulation ratio Week 3/Week 1 ([5]; EFdA in plasma, 30 mg oral once weekly): 0.98 (0.73, 1.44) | Cmax ([5]; EFdA in plasma, 100 mg oral once weekly, Week 1, read-out: Cmax): 1470 nM | Cmax ([5]; EFdA in plasma, 100 mg oral once weekly, Week 3, read-out: Cmax): 1850 nM | Cmax accumulation ratio Week 3/Week 1 ([5]; EFdA in plasma, 100 mg oral once weekly): 1.26 (0.26, 3.59) | exposure versus dose ([5]; EFdA in plasma, 10, 30, 100 mg once weekly): generally dose-proportional | Tmax ([5]; plasma, 10 mg, EFdA in plasma, 10 mg oral once weekly, Week 1): 1 h | Tmax ([5]; plasma, 10 mg, EFdA in plasma, 10 mg oral once weekly, Week 3): 1 h | Tmax ([5]; plasma, 30 mg, EFdA in plasma, 30 mg oral once weekly, Week 1): 1 h | Tmax ([5]; plasma, 30 mg, EFdA in plasma, 30 mg oral once weekly, Week 3): 1 h | Tmax ([5]; plasma, 100 mg, EFdA in plasma, 100 mg oral once weekly, Week 1): 2 h | Tmax ([5]; plasma, 100 mg, EFdA in plasma, 100 mg oral once weekly, Week 3): 1 h | half-life [5, 9]: 74.1 h | AUC(0-t) [5, 9]: 3.97 µM·h | half-life [5, 10]: 87.1 h | AUC(0-t) [5, 10]: 12 µM·h | accumulation of EFdA in plasma ([5]; plasma, multiple once weekly doses): little to no accumulation

C#C[C@]1(COP(=O)(O)OP(=O)(O)OP(=O)(O)O)O[C@@H](n2cnc3c(N)nc(F)nc32)C[C@@H]1O [EFdA-TP, 4′-ethynyl-2-fluoro-2′-deoxyadenosine triphosphate]
intracellular half-life [6]: exceeds 72 hrs | exposure versus dose ([5]; EFdA-TP in PBMC, EFdA 10, 30, 100 mg once weekly): generally dose-proportional | AUC0-168 hr [5, 11]: 341 (21.2) hr * pmo1/10^6 cells | Cmax [5, 11]: 3.78 (15.3) pmo1/10^6 cells | AUC0-168 hr [5, 12]: 1160 (41.5) hr * pmo1/10^6 cells | Cmax [5, 12]: 13.2 (51.3) pmo1/10^6 cells | AUC0-168 hr [5, 13]: 1570 (12.3) hr * pmo1/10^6 cells | Cmax [5, 13]: 19.6 (13.7) pmo1/10^6 cells | AUC0-168 hr [5, 14]: 3020 (31.3) hr * pmo1/10^6 cells | Cmax [5, 14]: 27.9 (21.2) pmo1/10^6 cells | AUC0-168 hr [5, 15]: 4580 (17.6) hr * pmo1/10^6 cells | Cmax [5, 15]: 43.0 (16.7) pmo1/10^6 cells | accumulation of EFdA-TP AUC0-168hr and Cmax [5, 16]: modest degree of accumulation | accumulation of EFdA-TP C168hr [5, 16]: little to no accumulation
